What all share (assay type): biochemical
For test [1], the target named is T1, PDE9A2 (Homo sapiens, UniProt O76083).
T1 construct: purchased Reaction Biology Corporation, Malvern, Pa
Nature of the test: Phosphodiesterase enzyme screening assay, PDE9A2. The note with it: read-out: Band (PDE9A2 IC50). The essentials:
(§1)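 Recombinant enzymes were run in 100 mM HEPES pH 7.5, 5 mM MgCl2, 1 mM DTT, 0.003% Brij with 4.0 μM cGMP substrate, started with cGMP or cAMP, 1 h at RT, and stopped with EDTA. Fluorescent substrate and product were separated by microfluidic mobility shift.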

Test [2] concerns the target T2, PDE1A (Homo sapiens, UniProt P54750).
T2 construct: purchased Reaction Biology Corporation, Malvern, Pa
Nature of the test: Phosphodiesterase enzyme screening assay, PDE1A. The essentials:
as §1

The target in test [3] is T3, PDE1B (Homo sapiens, UniProt Q01064).
T3 construct: purchased Reaction Biology Corporation, Malvern, Pa
The experiment in a line: Phosphodiesterase enzyme screening assay, PDE1B. The essentials:
as §1

[4] abbreviates: ratio of IC50 values, PDE1A versus PDE9A2, value greater than 1 indicates greater selectivity for PDE9A2.
Where [5] appears, read: ratio of IC50 values, PDE1B versus PDE9A2, value greater than 1 indicates greater selectivity for PDE9A2.
Setting [6] is: Table 2, 10 concentrations, 4.0 μM cGMP substrate, 1 hour at R.T.
Where [7] appears, read: Table 2, ratio of IC50 values, value greater than 1 indicates greater selectivity for PDE9A2.
Where [8] appears, read: Table 1, 10 concentrations, 4.0 μM cGMP substrate, 1 hour at R.T.
Setting [9] is: Table 1, ratio of IC50 values, value greater than 1 indicates greater selectivity for PDE9A2.
Setting [10] is: 4.0 μM cGMP substrate, 1 hour at R.T.

Structures are written as SMILES. Where two headings read alike, the source gives them in different places. Some results are limits rather than exact numbers.

T1 sequence (O76083 1-533 isoform O76083-2): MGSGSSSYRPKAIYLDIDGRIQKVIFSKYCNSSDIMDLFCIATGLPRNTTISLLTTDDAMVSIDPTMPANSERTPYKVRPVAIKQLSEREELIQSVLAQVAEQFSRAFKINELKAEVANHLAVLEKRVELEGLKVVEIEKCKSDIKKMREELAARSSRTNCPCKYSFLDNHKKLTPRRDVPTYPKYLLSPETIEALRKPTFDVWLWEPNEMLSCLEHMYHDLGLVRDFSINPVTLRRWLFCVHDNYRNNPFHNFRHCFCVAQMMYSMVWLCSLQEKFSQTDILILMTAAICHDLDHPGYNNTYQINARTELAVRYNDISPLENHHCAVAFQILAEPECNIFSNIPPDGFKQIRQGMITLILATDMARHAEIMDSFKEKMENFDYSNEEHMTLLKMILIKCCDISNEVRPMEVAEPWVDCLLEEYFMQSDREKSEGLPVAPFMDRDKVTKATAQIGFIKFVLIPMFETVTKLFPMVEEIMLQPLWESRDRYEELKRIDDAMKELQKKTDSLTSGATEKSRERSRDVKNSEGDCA
T3 sequence (Q01064 whole entry): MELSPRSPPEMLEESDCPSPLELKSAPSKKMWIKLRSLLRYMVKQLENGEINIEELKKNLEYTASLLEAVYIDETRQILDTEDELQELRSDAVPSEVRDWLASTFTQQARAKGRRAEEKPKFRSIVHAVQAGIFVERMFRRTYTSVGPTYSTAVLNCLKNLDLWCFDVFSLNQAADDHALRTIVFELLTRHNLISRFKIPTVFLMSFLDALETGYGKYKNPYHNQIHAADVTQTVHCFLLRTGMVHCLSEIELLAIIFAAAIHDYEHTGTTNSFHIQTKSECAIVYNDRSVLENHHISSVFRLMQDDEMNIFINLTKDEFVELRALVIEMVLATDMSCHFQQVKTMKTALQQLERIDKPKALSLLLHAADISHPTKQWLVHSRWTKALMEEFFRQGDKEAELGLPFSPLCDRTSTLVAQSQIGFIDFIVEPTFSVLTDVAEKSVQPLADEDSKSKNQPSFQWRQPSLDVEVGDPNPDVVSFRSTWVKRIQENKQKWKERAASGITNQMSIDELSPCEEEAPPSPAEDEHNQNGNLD
T2 sequence (P54750 whole entry): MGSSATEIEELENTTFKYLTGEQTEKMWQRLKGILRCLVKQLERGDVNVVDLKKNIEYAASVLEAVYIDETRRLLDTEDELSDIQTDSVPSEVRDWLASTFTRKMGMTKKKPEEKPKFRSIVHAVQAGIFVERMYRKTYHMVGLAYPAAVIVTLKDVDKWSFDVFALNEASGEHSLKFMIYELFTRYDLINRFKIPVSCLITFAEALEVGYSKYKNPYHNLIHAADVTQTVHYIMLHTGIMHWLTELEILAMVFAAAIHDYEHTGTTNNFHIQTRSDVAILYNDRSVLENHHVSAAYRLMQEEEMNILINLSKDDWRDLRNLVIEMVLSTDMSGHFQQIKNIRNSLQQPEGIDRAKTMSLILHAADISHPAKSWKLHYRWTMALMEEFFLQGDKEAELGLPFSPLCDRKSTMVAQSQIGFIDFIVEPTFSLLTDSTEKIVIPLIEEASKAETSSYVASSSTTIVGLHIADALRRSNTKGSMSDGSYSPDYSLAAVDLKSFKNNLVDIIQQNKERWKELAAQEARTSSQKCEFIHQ

`CC1CN(Cc2ccccc2)CC1c1nn2c(-c3cccc(F)c3)ncc2c(=O)[nH]1` (single isomer, unassigned; (+)) [(+)-2-((3,4-trans)-1-benzyl-4-methylpyrrolidin-3-yl)-7-(3-fluorophenyl)imidazo[5,1-f][1,2,4]triazin-4(3H)-one]: in test [1], the IC50 was under 1000 nM. In test [2] (setting [4]), the “PDE1A selectivity (versus PDE9A2)” value was determined as 70. Besides, the “PDE1B selectivity (versus PDE9A2)” value in test [3] (setting [5]) was determined as 113.
On to `Cc1cnc(CN2CC(C)C(c3nn4c(C5CCOCC5)ncc4c(=O)[nH]3)C2)nc1` (single isomer, unassigned; (+)) [(+)-2-((3,4-trans)-4-methyl-1-((5-methylpyrimidin-2-yl)methyl)pyrrolidin-3-yl)-7-(tetrahydro-2H-pyran-4-yl)imidazo[5,1-f][1,2,4]triazin-4(3H)-one], for which the IC50 in test [1] (setting [6]) was under 1000 nM. Also, in test [2] (setting [7]), the “PDE1A selectivity (versus PDE9A2)” value came to 42. Also, in test [3] (setting [7]), the “PDE1B selectivity (versus PDE9A2)” value is 76.
For `CC1CN(Cc2cccc(C3CC3)c2)CC1c1nn2c(C3CCOCC3)ncc2c(=O)[nH]1` (single isomer, unassigned; (+)) [(+)-2-((3,4-trans)-1-(3-cyclopropylbenzyl)-4-methylpyrrolidin-3-yl)-7-(tetrahydro-2H-pyran-4-yl)imidazo[5,1-f][1,2,4]triazin-4(3H)-one], the IC50 in test [1] (setting [8]) was under 1000 nM. Moreover, in test [2] (setting [9]), the “PDE1A selectivity (versus PDE9A2)” value came to 703. Moreover, the “PDE1B selectivity (versus PDE9A2)” value in test [3] (setting [9]) stood at 903.
In the case of `CCC(CC)c1ncc2c(=O)[nH]c(C3CN(Cc4ccc(F)cc4)CC3C)nn12` (single isomer, unassigned; (+)) [(+)-2-((3,4-trans)-1-(4-fluorobenzyl)-4-methylpyrrolidin-3-yl)-7-(pentan-3-yl)imidazo[5,1-f][1,2,4]triazin-4(3H)-one], the IC50 in test [1] was under 1000 nM. Also, the “PDE1A selectivity (versus PDE9A2)” value in test [2] (setting [4]) is 70. Besides, the “PDE1B selectivity (versus PDE9A2)” value in test [3] (setting [5]) amounted to 27.
For `CC1CN(Cc2cnccn2)CC1c1nn2c(-c3ccc(F)cc3)ncc2c(=O)[nH]1` (single isomer, unassigned; (+)) [(+)-7-(4-fluorophenyl)-2-((3,4-trans)-4-methyl-1-(pyrazin-2-ylmethyl)pyrrolidin-3-yl)imidazo[5,1-f][1,2,4]triazin-4(3H)-one] the same measures were under 1000 nM, 9 and 8.
Consider `COc1cncc(CN2CC(C)C(c3nn4c(C5CCOCC5)ncc4c(=O)[nH]3)C2)c1` (single isomer, unassigned; (+)) [(+)-2-((3,4-trans)-1-((5-methoxypyridin-3-yl)methyl)-4-methylpyrrolidin-3-yl)-7-(tetrahydro-2H-pyran-4-yl)imidazo[5,1-f][1,2,4]triazin-4(3H)-one], for which, in test [1] (setting [10]), the IC50 is under 1000 nM. Besides, the “PDE1A selectivity (versus PDE9A2)” value in test [2] (ratio of IC50 values PDE1A / PDE9A2, value greater than 1 = greater selectivity for PDE9A2) came out at 1060. For the same compound, the “PDE1B selectivity (versus PDE9A2)” value in test [3] (ratio of IC50 values PDE1B / PDE9A2, value greater than 1 = greater selectivity for PDE9A2) was 1780.
Take `COc1cccc(CN2CC(C)C(c3nn4c(C5CCOCC5)ncc4c(=O)[nH]3)C2)c1` (single isomer, unassigned; (+)) [(+)-2-((3,4-trans)-1-(3-methoxybenzyl)-4-methylpyrrolidin-3-yl)-7-(tetrahydro-2H-pyran-4-yl)imidazo[5,1-f][1,2,4]triazin-4(3H)-one]: the IC50 in test [1] (setting [8]) is under 1000 nM. In addition, the “PDE1A selectivity (versus PDE9A2)” value in test [2] (setting [9]) stood at 1347. For the same compound, in test [3] (setting [9]), the “PDE1B selectivity (versus PDE9A2)” value was found to be 477.
For `CC1CN(Cc2cn3ccccc3n2)CC1c1nn2c(C3CCCC3)ncc2c(=O)[nH]1` (single isomer, unassigned; (+)) [(+)-7-cyclopentyl-2-((3,4-trans)-1-(imidazo[1,2-a]pyridin-2-ylmethyl)-4-methylpyrrolidin-3-yl)imidazo[5,1-f][1,2,4]triazin-4(3H)-one], the IC50 in test [1] was under 1000 nM. For the same compound, the “PDE1A selectivity (versus PDE9A2)” value in test [2] (setting [4]) amounted to 57. For the same compound, in test [3] (setting [5]), the “PDE1B selectivity (versus PDE9A2)” value was determined as 125.
For the compound `CC1CN(CCc2cncnc2)CC1c1nn2c(C3CCOCC3)ncc2c(=O)[nH]1` (single isomer, unassigned; (+)) [(+)-2-((3,4-trans)-4-methyl-1-(2-(pyrimidin-5-yl)ethyl)pyrrolidin-3-yl)-7-(tetrahydro-2H-pyran-4-yl)imidazo[5,1-f][1,2,4]triazin-4(3H)-one], the IC50 in test [1] (setting [6]) is under 1000 nM. Moreover, the “PDE1A selectivity (versus PDE9A2)” value in test [2] (setting [7]) is recorded as 71. Moreover, in test [3] (setting [7]), the “PDE1B selectivity (versus PDE9A2)” value was determined as 89.
On to `CC1CN(Cc2cccnn2)CC1c1nn2c(C3CCOCC3)ncc2c(=O)[nH]1` (single isomer, unassigned; (+)) [(+)-2-((3,4-trans)-4-methyl-1-(pyridazin-3-ylmethyl)pyrrolidin-3-yl)-7-(tetrahydro-2H-pyran-4-yl)imidazo[5,1-f][1,2,4]triazin-4(3H)-one], for which the IC50 in test [1] (setting [8]) is under 1000 nM. Besides, the “PDE1A selectivity (versus PDE9A2)” value in test [2] (setting [9]) worked out at 182. Further, in test [3] (setting [9]), the “PDE1B selectivity (versus PDE9A2)” value is given as 276.
The corresponding values for `CC1CN(Cc2ccc(C#N)cc2)CC1c1nn2c(C3CCOCC3)ncc2c(=O)[nH]1` (single isomer, unassigned; (-)) [(−)-4-(((3,4-trans)-3-methyl-4-(4-oxo-7-(tetrahydro-2H-pyran-4-yl)-3,4-dihydroimidazo[5,1-f][1,2,4]triazin-2-yl)pyrrolidin-1-yl)methyl)benzonitrile] are under 1000 nM, 640 and 1445.
The corresponding values for `CC1CN(Cc2cc(F)ccc2F)CC1c1nn2c(C3CCOCC3)ncc2c(=O)[nH]1` (single isomer, unassigned; (+)) [(+)-2-((3,4-trans)-1-(2,5-difluorobenzyl)-4-methylpyrrolidin-3-yl)-7-(tetrahydro-2H-pyran-4-yl)imidazo[5,1-f][1,2,4]triazin-4(3H)-one] are under 1000 nM, 97 and 118.
Consider `CC1CN(Cc2ccccc2)CC1c1nn2c(-c3ccc(F)cc3)ncc2c(=O)[nH]1` (single isomer, unassigned; (+)) [(+)-2-((3,4-trans)-1-benzyl-4-methylpyrrolidin-3-yl)-7-(4-fluorophenyl)imidazo[5,1-f][1,2,4]triazin-4(3H)-one], for which, in test [1], the IC50 was under 1000 nM. Besides, the “PDE1A selectivity (versus PDE9A2)” value in test [2] (setting [4]) amounted to 220. Moreover, the “PDE1B selectivity (versus PDE9A2)” value in test [3] (setting [5]) is given as 286.
For the compound `CC1CN(Cc2ccc(Cl)cc2Cl)CC1c1nn2c(C3CCOCC3)ncc2c(=O)[nH]1` (single isomer, unassigned; (+)) [(+)-2-((3,4-trans)-1-(2,4-dichlorobenzyl)-4-methylpyrrolidin-3-yl)-7-(tetrahydro-2H-pyran-4-yl)imidazo[5,1-f][1,2,4]triazin-4(3H)-one], the IC50 in test [1] (setting [8]) was under 1000 nM. In addition, the “PDE1A selectivity (versus PDE9A2)” value in test [2] (setting [9]) turned out to be 598. For the same compound, in test [3] (setting [9]), the “PDE1B selectivity (versus PDE9A2)” value was 994.
The corresponding values for `CC1CN(Cc2ccc(F)c(C(F)(F)F)c2)CC1c1nn2c(C3CCOCC3)ncc2c(=O)[nH]1` (single isomer, unassigned; (+)) [(+)-2-((3,4-trans)-1-(4-fluoro-3-(trifluoromethyl)benzyl)-4-methylpyrrolidin-3-yl)-7-(tetrahydro-2H-pyran-4-yl)imidazo[5,1-f][1,2,4]triazin-4(3H)-one] are under 1000 nM, 1687 and 1097.
For `Cc1cnccc1-c1ncc2c(=O)[nH]c(C3CN(Cc4ncccn4)CC3C)nn12` (single isomer, unassigned; (+)) [(+)-2-((3,4-trans)-4-methyl-1-(pyrimidin-2-ylmethyl)pyrrolidin-3-yl)-7-(3-methylpyridin-4-yl)imidazo[5,1-f][1,2,4]triazin-4(3H)-one], the 50% inhibitory concentration (IC50) in test [1] (setting [10]) was under 1000 nM. The “PDE1A selectivity (versus PDE9A2)” value in test [2] (ratio of IC50 values PDE1A / PDE9A2, value greater than 1 indicates greater selectivity for PDE9A2) worked out at 85. The “PDE1B selectivity (versus PDE9A2)” value in test [3] (ratio of IC50 values PDE1B / PDE9A2, value greater than 1 indicates greater selectivity for PDE9A2) is 63.
With `COc1ccccc1CN1CC(C)C(c2nn3c(C4CCOCC4)ncc3c(=O)[nH]2)C1` (single isomer, unassigned; (+)) [(+)-2-((3,4-trans)-1-(2-methoxybenzyl)-4-methylpyrrolidin-3-yl)-7-(tetrahydro-2H-pyran-4-yl)imidazo[5,1-f][1,2,4]triazin-4(3H)-one], in test [1] (setting [8]), the IC50 was under 1000 nM. In addition, the “PDE1A selectivity (versus PDE9A2)” value in test [2] (setting [9]) is 337. Further, the “PDE1B selectivity (versus PDE9A2)” value in test [3] (setting [9]) worked out at 230.
The corresponding values for `CC1CN(Cc2ccc(Cl)c(Cl)c2)CC1c1nn2c(C3CCOCC3)ncc2c(=O)[nH]1` (single isomer, unassigned; (+)) [(+)-2-((3,4-trans)-1-(3,4-dichlorobenzyl)-4-methylpyrrolidin-3-yl)-7-(tetrahydro-2H-pyran-4-yl)imidazo[1,5-f][1,2,4]triazin-4(3H)-one] are under 1000 nM, 1297 and 2627.
As to `CC1CN(Cc2nc3ccccn3n2)CC1c1nn2c(-c3cccc(F)c3)ncc2c(=O)[nH]1` (single isomer, unassigned; (+)) [(+)-2-((3,4-trans)-1-([1,2,4]triazolo[1,5-a]pyridin-2-ylmethyl)-4-methylpyrrolidin-3-yl)-7-(3-fluorophenyl)imidazo[5,1-f][1,2,4]triazin-4(3H)-one], in test [1], the IC50 was under 1000 nM. In addition, in test [2] (setting [4]), the “PDE1A selectivity (versus PDE9A2)” value was determined as 3. The “PDE1B selectivity (versus PDE9A2)” value in test [3] (setting [5]) is recorded as 10.

Broadly, the IC50 is the concentration needed to halve the response being measured.

The values above are taken from patent publication US9969742B2, “Imidazotriazinone compounds” (Ironwood Pharmaceuticals, Inc., priority 2012, dated 2018).
